Reference: patent US20250215016A1, “ISOXAZOLE-HETEROCYCLIC DERIVATIVE, PHARMACEUTICAL COMPOSITION AND USE” (SHANGHAI SIMR BIOTECHNOLOGY CO., LTD, priority 2022, published 2025)
In brackets after ≈: the same amount, converted by molar mass.

Legend:
[1] = biological target: human α5β3γ2 receptor (α5-GABAA receptor) (Homo sapiens (Human), UniProt P18507+P31644); assay: Radioligand (3H-flunitrazepam) competition binding assay, BZD site; settings: 3H-flunitrazepam 1 nM; HEK293 membranes expressing human α5β3γ2
Method in brief: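 Membranes from HEK293 cells stably expressing human α2β3γ2 or α5β3γ2 (5 μg protein/well) incubated 1 h at room temperature with 1 nM ^3H-flunitrazepam and 8-point 4-fold compound dilutions; nonspecific binding defined with 10 μM flumazenil. Filter-bound radioactivity counted; Ki derived from fitted IC50.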

[2] = biological target: α5-GABAA receptor (Homo sapiens (Human), UniProt P18507+P31644); assay: Whole-cell patch clamp electrophysiology, inverse regulation activity in α5β3γ2-HEK293 cells; format: cell-based; settings: compound 100 nM; GABA 0.05-0.06 μM (about EC7-8); clamped at −60 mV; read-out: Inverse regulation efficiency to α5-GABAA receptor
Method in brief: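 HEK293 cells expressing α5β3γ2 recorded whole-cell at −60 mV holding potential, GABA 0.05-0.06 μM (about EC7-8) applied, then compound at 100 nM final with GABA. pH 7.4 extracellular, CsCl-based pipette solution. Inverse regulation efficiency = (Itreatment−Igaba)/(Igaba−Iprebaseline)×100%.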

[3] = Thermodynamic solubility in simulated intestinal fluid (FaSSIF); format: physicochemical; settings: simulated intestinal fluid (FaSSIF), thermodynamic from solid, 37° C., 1000 rpm
Protocol: 50 mM of phosphate buffer, pH=7.4:0.39 g of NaH2PO4·2H2O, 1.4025 g of Na2HPO4 were weighed, placed into an Erlenmeyer flask, dissolved with the addition of 240 ml of water, homogenously mixed, adjusted to pH 7.4 with 10 M NaOH solution, transferred into a 250 ml volumetric flask and diluted with water to the scale.
Simulated intestinal fluid FaSSIF: 54.76 mg of FaSSIF-V2 (Biorelevant, batch. V2FAS-0619-A, lot. V2FAS01) was weighed, and added to 15 ml of buffer, and after dissolution, the solution was made up to 30 ml and left to stand at room temperature for 1 hour for use.
Waters e2695 HPLC high performance liquid chromatography, Mettler XSE105 analytical balance.
Stock solution containing 10 mM of each test compound was formulated using DMSO, diluted into […] standard curve solution using diluent (ACN:PB buffer with a volume ratio of 50:50), and tested by HPLC to obtain a standard curve of concentration vs peak area of each test compound.
Thermodynamic solubility in simulated intestinal fluid (TS in FaSSIF). About 0.3 mg of each sample (test compound) was weighed, added into 1.5 mL of FaSSIF solution, two samples in parallel, shaken at 1000 rpm and 37° C. for 4 hours, and filtered, 1 mL of primary filtrate was discarded, then 400 μL of subsequent filtrate was taken, and tested by using a high performance liquid chromatograph (UV).

[4] = biological target: human α2β3γ2 receptor (α2-GABAA receptor) (Homo sapiens (Human), UniProt P18507+P47869); assay: Radioligand (3H-flunitrazepam) competition binding assay, BZD site; α2 vs α5 binding selectivity; settings: ratio of Ki at α2β3γ2 to Ki at α5β3γ2
Source text: α, β and γ subunits are essential for the formation of a complete functional GABAA receptor. In this example, HEK293 cell strains stably expressing human α5-GABAA receptor (comprising α5β3γ2 subunit) and α2-GABAA receptor (comprising α2β3γ2 subunit) were constructed and screened, respectively, by liposome transfection method (Felgner, P. L., et al., Proceedings of the National Academy of Sciences, 1987, 84:7413-7417). The specific subunit protein sequences are as follows: α5 subunit (protein sequence can be found in GenBank accession number: NM_000810.3); α2 subunit (protein sequence can be found in GenBank accession number: NM_000807.4); β3 subunit (protein sequence can be found in GenBank accession number: NM_000814.5); γ2 subunit (protein sequence can be found in GenBank accession number: NM_000816.3).
The above cell lines were subcultured. Amplification of α5β3γ2-HEK293 and α2β3γ2-HEK293 cells was used to test the affinity of the compounds to benzodiazepine site (BZD) of the GABAA receptor. During the passage of α5β3γ2-HEK293 cells, some of the suspended cells were spread on a glass slide pretreated with Poly-D-Lysine for electrophysiological testing.
Flunitrazepam is a non-specific reagent that binds to the BZD site efficiently. The affinity of the compounds to the BZD sites of the human α5β3γ2 and α2β3γ2 receptors can be determined by competing the compound with ^3H-flunitrazepam (isotope ^3H-labeled flunitrazepam) for binding to these two receptors.
Membrane preparation: HEK293 cells stably expressing human α5β3γ2 receptor or α2β3γ2 receptor were collected, suspended in 50 mM Tris-HCl buffer (pH=7.4), homogenized on ice by a homogenizer for 20 seconds 10 times, and centrifuged at 4° C., 1000 g for 10 min. The supernatant was collected, and the above steps were repeated. The supernatant was centrifuged (33800 g; centrifuge purchased from Thermo, rotor model: A27-8×50) at 4° C. for 60 min, and the precipitate was resuspended in Tris buffer (50 mM Tris-HCl, 10 mM MgCl2, 0.5 mM EDTA, 10% glycerol). The precipitate was the cell membrane. Protein content was determined by BCA (Bicinchoninic Acid) method (BCA kit from Pierce (Annoron)). The cell membrane was prepared into 1 ml aliquot and stored at −80° C.
Radioligand competition binding assay: the assay was carried out in a 200 μL system (96-well plate from Agilent) with 100 μL of cell membrane. The concentration of ^3H-flunitazepam (from PerkinElmer, lot: NET567250 UC) was 1 nM and the concentration of test compound was in the range 1×10^−5-10^−6 M. Flumazenil (from Tocris; lot: 1318) was used as a control. 1 μL of 2 mM flumazenil (final concentration 10 μM) was added to the Low signal control well (Low control, LC) and 1 μL of DMSO (from Sigma aldrich, lot: 472301) was added to the High signal control well (High control, HC). The final target membrane protein concentration was 5 μg/well. All test compound sample stocks were 10 mM DMSO solutions. The working concentration of the samples is to dilute all samples with DMSO to 0.2 mM, and then perform 4-fold continuous gradient dilution for a total of 8 concentration gradients. The 96-well plate was sealed with a plate sealing membrane and then incubated on a shaker at room temperature for 1 hour. Meanwhile, GF/C filter plate was soaked with a plate soaking buffer (0.3% PEI, polyethyleneimine, purchased from Sigma aldrich, model: P314, stored at 4° C.) for at least 0.5 hours. After completion of binding incubation, the cells were collected with a cell collector onto the GF/C filter plate and washed four times with a plate washing buffer (50 mM Tris-HCl, pH 7.4, stored at 4° C.). […]

[5] = biological target: α5-GABAA receptor (Homo sapiens (Human), UniProt P31644); settings: highest concentration of L-655,708; GABA 1 μM; cited from earlier work

Row | Ki [1] [nM] | inhibition at 0.1 µM [2] [%] | solubility thermodynamic at 4 h [3] [mg/mL] | Selectivity α2 ki/α5 ki [4] [folds] | SMILES | Inhibition of GABA-induced current [5] [%]
1 | 9.86 | 41 | 0.191 (≈ 426 µM) | – | CC(=O)N1CCn2c(nnc2-c2ccc(OCc3c(-c4ccc(F)cc4)noc3C)nc2)C1 [Compound 30, 1-(3-(6-((3-(4-fluorophenyl)-5-methylisoxazol-4-yl)methoxy)pyridin-3-yl)-5,6-dihydro-[1,2,4]triazolo[4,3-a]pyrazin-7(8H)-yl)ethan-1-one] | –
2 | – | – | 0.0329 (≈ 67.8 µM) | – | Cc1onc(-c2ccc(F)cc2)c1COc1ccc(-c2nnc3n2CCN(S(C)(=O)=O)C3)cn1 [Compound 31, 3-(4-fluorophenyl)-5-methyl-4-(((5-(7-(methylsulfonyl)-5,6,7,8-tetrahydro-[1,2,4]triazolo[4,3-a]pyrazin-3-yl)pyridin-2-yl)oxy)methyl)isoxazole] | –
3 | – | – | 0.0009 (≈ 2.58 µM) | – | Cc1noc(-c2ccc(OCc3c(-c4ccccc4)noc3C)nc2)n1 [WO2009071476, Example 245, reference compound] | –
4 | 11.2 | 45 | – | 109 | Cc1onc(-c2ccc(F)cc2)c1COc1ccc(-c2nnc3n2CCCOC3)cn1 [Compound 20, 3-(6-((3-(4-fluorophenyl)-5-methylisoxazol-4-yl)methoxy)pyridin-3-yl)-6,7-dihydro-5H,9H-[1,2,4]triazolo[3,4-c][1,4]oxazepane] | –
5 | – | – | – | – | CCOC(=O)c1ncn2c1[C@@H]1CCCN1C(=O)c1cc(OC)ccc1-2 [L-655,708] | 15
6 | 3.39 | 45 | – | 46.9 | Cc1onc(-c2ccc(F)cc2)c1COc1ccc(N2CCn3c(C)nnc3C2=O)nn1 [Compound 36, 7-(6-((3-(4-fluorophenyl)-5-methylisoxazol-4-yl)methoxy)pyridazin-3-yl)-3-methyl-6,7-dihydro-[1,2,4]triazolo[4,3-a]pyrazin-8(H)-one] | –
